Several values for one entry are separate records, joined by “and”; a condition that tells them apart may be missing. Identical values can stand only once. Toxic doses and inconclusive results are not listed.
System: P388 leukemia ip, CD2F1 mice, survival T/C
Test: NCI In Vivo Anticancer Drug Screen. Data for tumor model P388 Leukemia (intraperitoneal) in CD2F1 (CDF1) mice
Details: endpoint: median survival time, higher = longer survival
Procedure, shortened: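 Mice carrying the transplanted tumor received test compound or vehicle. Survival was recorded in each group, and the value is the treated-group measurement divided by that of the vehicle-treated control group.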

[1] = dose: 100.0 mg/kg/injection, schedule: Q01DX009 (ip), vehicle: Klucel (hydroxypropylcellulose) (HPC)
[2] = dose: 60.0 mg/kg/injection, schedule: Q01DX005 (ip), vehicle: Klucel (hydroxypropylcellulose) (HPC)
[3] = dose: 120.0 mg/kg/injection, schedule: Q01DX005 (ip), vehicle: Klucel (hydroxypropylcellulose) (HPC)
[4] = dose: 240.0 mg/kg/injection, schedule: Q01DX005 (ip), vehicle: Klucel (hydroxypropylcellulose) (HPC)
[5] = dose: 50.0 mg/kg/injection, schedule: Q01DX005 (ip), vehicle: Klucel (hydroxypropylcellulose) (HPC)
[6] = dose: 100.0 mg/kg/injection, schedule: Q01DX005 (ip), vehicle: Klucel (hydroxypropylcellulose) (HPC)
[7] = dose: 200.0 mg/kg/injection, schedule: Q01DX005 (ip), vehicle: Klucel (hydroxypropylcellulose) (HPC)
[8] = dose: 6.25 mg/kg/injection, schedule: Q01DX005 (ip), vehicle: saline with Tween-80
[9] = dose: 25.0 mg/kg/injection, schedule: Q01DX005 (ip), vehicle: saline with Tween-80
[10] = dose: 60.0 mg/kg/injection, schedule: Q01DX005 (ip), vehicle: saline with Tween-80
[11] = dose: 120.0 mg/kg/injection, schedule: Q01DX005 (ip), vehicle: saline with Tween-80
[12] = dose: 240.0 mg/kg/injection, schedule: Q01DX005 (ip), vehicle: saline with Tween-80
[13] = dose: 50.0 mg/kg/injection, schedule: Q01DX009 (ip), vehicle: saline
[14] = dose: 100.0 mg/kg/injection, schedule: Q01DX009 (ip), vehicle: saline

## Nc1ccccc1.O=C([CH-]C(=O)C(F)(F)F)c1ccccc1.O=C([CH-]C(=O)C(F)(F)F)c1ccccc1.O=C([CH-]C(=O)C(F)(F)F)c1ccccc1.O=C([CH-]C(=O)C(F)(F)F)c1ccccc1.[Eu+3]
[1]
  T/C: 100 % of control
dose: 200.0 mg/kg/injection, schedule: Q01DX009 (ip), vehicle: Klucel (hydroxypropylcellulose) (HPC)
  T/C: 103 % of control

## CN(C)Cc1cccc(CN(C)C)[c]1[Sn]([Br])([c]1ccccc1)[c]1ccccc1
dose: 1.56 mg/kg/injection, schedule: Q01DX009 (ip), vehicle: saline
  T/C: 104 % of control
dose: 3.12 mg/kg/injection, schedule: Q01DX009 (ip), vehicle: saline
  T/C: 106 % of control
dose: 12.5 mg/kg/injection, schedule: Q01DX009 (ip), vehicle: saline
  T/C: 120 % of control

## CC(C)(C)c1noc2c1C(=O)c1ccccc1-2
[2]
  T/C: 99 % of control
[3]
  T/C: 91 % of control
[4]
  T/C: 96 % of control

## COC(=O)C1C(O)CN2CCCC12C (configuration not stated)
dose: 100.0 mg/kg/injection, schedule: Q04DX003 (ip), vehicle: saline with Tween-80
  T/C: 107 % of control
dose: 200.0 mg/kg/injection, schedule: Q04DX003 (ip), vehicle: saline with Tween-80
  T/C: 97 % of control
dose: 400.0 mg/kg/injection, schedule: Q04DX003 (ip), vehicle: saline with Tween-80
  T/C: 108 % of control

## CCN(CC)CCSCCCNc1cc(OC)cc2cccnc12
dose: 12.5 mg/kg/injection, schedule: Q01DX005 (ip), vehicle: saline
  T/C: 93 % of control
dose: 25.0 mg/kg/injection, schedule: Q01DX005 (ip), vehicle: saline
  T/C: 88 % of control
dose: 50.0 mg/kg/injection, schedule: Q01DX005 (ip), vehicle: saline
  T/C: 95 % of control and 98 % of control

## O=C(CSC1CCc2ccccc21)NNC(=O)Nc1ccc(Cl)cc1 (configuration not stated)
[5]
  T/C: 90 % of control
[6]
  T/C: 95 % of control
[7]
  T/C: 89 % of control

## CC(C)[C@H](N)C(=O)NCCNC(=O)[C@@H](N)C(C)C
dose: 60.0 mg/kg/injection, schedule: Q01DX005 (ip), vehicle: saline
  T/C: 91 % of control
dose: 120.0 mg/kg/injection, schedule: Q01DX005 (ip), vehicle: saline
  T/C: 98 % of control

## O=C(Nc1ccc([N+](=O)[O-])cc1C(Sc1ccccc1)c1ccccc1)c1ccc([N+](=O)[O-])cc1 (configuration not stated)
dose: 100.0 mg/kg/injection, schedule: Q01DX001 (ip), vehicle: saline with Tween-80
  T/C: 94 % of control
dose: 200.0 mg/kg/injection, schedule: Q01DX001 (ip), vehicle: saline with Tween-80
  T/C: 87 % of control

## [Cl][Rh][Cl].[NH-]c1nc2c(ccc3ccccc32)s1.[NH-]c1nc2c(ccc3ccccc32)s1.[NH-]c1nc2c(ccc3ccccc32)s1.[NH-]c1nc2c(ccc3ccccc32)s1
dose: 100.0 mg/kg/injection, schedule: Q04DX003 (ip), vehicle: saline
  T/C: 108 % of control
dose: 200.0 mg/kg/injection, schedule: Q04DX003 (ip), vehicle: saline
  T/C: 109 % of control
dose: 400.0 mg/kg/injection, schedule: Q04DX003 (ip), vehicle: saline
  T/C: 105 % of control

## O=C(CN1CCN(CCO)CC1)N1c2ccccc2Sc2ccc(C(F)(F)F)cc21
dose: 100.0 mg/kg/injection, schedule: Q04DX002 (ip), vehicle: saline
  T/C: 101 % of control
dose: 200.0 mg/kg/injection, schedule: Q04DX002 (ip), vehicle: saline
  T/C: 90 % of control

## COC(=O)/C=C/c1oc(=O)c(CO)c(OC)c1CO
dose: 20.0 mg/kg/injection, schedule: Q01DX009 (ip), vehicle: Klucel (hydroxypropylcellulose) (HPC)
  T/C: 119 % of control
dose: 40.0 mg/kg/injection, schedule: Q01DX009 (ip), vehicle: Klucel (hydroxypropylcellulose) (HPC)
  T/C: 119 % of control
dose: 80.0 mg/kg/injection, schedule: Q01DX009 (ip), vehicle: Klucel (hydroxypropylcellulose) (HPC)
  T/C: 111 % of control

## COc1cc(-c2ccc(N=Nc3c(O)c(C(=O)Nc4ccccc4OC)cc4ccccc34)c(OC)c2)ccc1N=Nc1c(O)c(C(=O)Nc2ccccc2OC)cc2ccccc12
[8]
  T/C: 90 % of control
dose: 12.5 mg/kg/injection, schedule: Q01DX005 (ip), vehicle: saline with Tween-80
  T/C: 96 % of control
[9]
  T/C: 89 % of control

## CC(=O)NCCc1nc(-c2nc(C(=O)NCCC[S+](C)C)cs2)cs1
dose: 1.56 mg/kg/injection, schedule: Q01DX005 (ip), vehicle: saline with Tween-80
  T/C: 107 % of control
dose: 3.13 mg/kg/injection, schedule: Q01DX005 (ip), vehicle: saline with Tween-80
  T/C: 107 % of control
[8]
  T/C: 100 % of control and 105 % of control
[9]
  T/C: 96 % of control

## O=c1/c(=C/c2ccc(/C=c3\sc4nc5ccccc5n4c3=O)cc2)sc2nc3ccccc3n12
dose: 50.0 mg/kg/injection, schedule: Q01DX005 (ip), vehicle: saline with Tween-80
  T/C: 92 % of control
dose: 100.0 mg/kg/injection, schedule: Q01DX005 (ip), vehicle: saline with Tween-80
  T/C: 90 % of control
dose: 200.0 mg/kg/injection, schedule: Q01DX005 (ip), vehicle: saline with Tween-80
  T/C: 95 % of control

## CC(C)=CCC1=CC(=O)C=CC1=O
dose: 6.25 mg/kg/injection, schedule: Q01DX009 (ip), vehicle: saline with Tween-80
  T/C: 98 % of control
dose: 12.5 mg/kg/injection, schedule: Q01DX009 (ip), vehicle: saline with Tween-80
  T/C: 99 % of control
dose: 25.0 mg/kg/injection, schedule: Q01DX009 (ip), vehicle: saline with Tween-80
  T/C: 107 % of control
dose: 50.0 mg/kg/injection, schedule: Q01DX009 (ip), vehicle: saline with Tween-80
  T/C: 114 % of control

## N#CC1=C(Nc2ccccc2Cl)SC2(CCCC2)NC1=O
[2]
  T/C: 100 % of control
[3]
  T/C: 100 % of control
[4]
  T/C: 92 % of control

## CC(=O)Nc1ccc(C(C)C)cc1N
[5]
  T/C: 100 % of control
[6]
  T/C: 101 % of control
[7]
  T/C: 107 % of control

## C=C1C(=O)OC2CC1C(OC(=O)/C=C/c1ccccc1)C/C(C)=C/CC/C(C)=C/CCC2(C)O (configuration not stated)
dose: 12.5 mg/kg/injection, schedule: Q01DX009 (ip), vehicle: Klucel (hydroxypropylcellulose) (HPC)
  T/C: 113 % of control
dose: 25.0 mg/kg/injection, schedule: Q01DX009 (ip), vehicle: Klucel (hydroxypropylcellulose) (HPC)
  T/C: 113 % of control
dose: 50.0 mg/kg/injection, schedule: Q01DX009 (ip), vehicle: Klucel (hydroxypropylcellulose) (HPC)
  T/C: 118 % of control
[1]
  T/C: 110 % of control

## Cc1ccc(CCNC(=O)c2c3nc4c(C(=O)NCCc5ccc(C)cc5)ccc(C)c4oc-3c(C)c(=O)c2N)cc1
dose: 25.0 mg/kg/injection, schedule: Q04DX003 (ip), vehicle: DMSO
  T/C: 98 % of control
dose: 50.0 mg/kg/injection, schedule: Q04DX003 (ip), vehicle: DMSO
  T/C: 99 % of control
dose: 100.0 mg/kg/injection, schedule: Q04DX003 (ip), vehicle: DMSO
  T/C: 91 % of control

## N=c1c2ncn3c(=O)n(-c4ccccc4)c(nc(=O)n1-c1ccccc1)c23
[10]
  T/C: 101 % of control
[11]
  T/C: 100 % of control
[12]
  T/C: 98 % of control

## N#Cc1c(N)sc(=S)c2c1CCCC2
[13]
  T/C: 104 % of control
[14]
  T/C: 95 % of control
dose: 200.0 mg/kg/injection, schedule: Q01DX009 (ip), vehicle: saline
  T/C: 95 % of control

## O=S(=O)(c1cnccc1N1CCN(CCO)CC1)N1CCCCC1
[13]
  T/C: 101 % of control
[14]
  T/C: 105 % of control

## Cc1cc(Br)c(NC(=O)c2c(-c3c(Cl)cccc3Cl)noc2C)c(Br)c1
[2]
  T/C: 88 % of control
[3]
  T/C: 95 % of control

## CC(C)(/C=C/c1ccccc1)N=Cc1ccccc1
[10]
  T/C: 100 % of control
[11]
  T/C: 104 % of control
[12]
  T/C: 98 % of control

## NC(=O)N/N=C(/Cc1nc2ccccc2nc1C/C(=N/NC(N)=O)c1cccc2ccccc12)c1cccc2ccccc12
[10]
  T/C: 99 % of control and 95 % of control
[11]
  T/C: 100 % of control
[12]
  T/C: 100 % of control and 91 % of control

From PubChem BioAssay AID330 (DTP/NCI, 2004)
